For data set [1], the target named is 7β-HSDH from Collinsella aerofaciens DSM 3979 (Collinsella aerofaciens, UniProt A4ECA9). Type of data set: biochemical.
Data set [2] addresses T1, 7β-HSDH from Collinsella aerofaciens DSM 3979 (ATCC 25986), wild type, SEQ ID NO:2 (Collinsella aerofaciens, UniProt A4ECA9).
T1 construct: The gene coding for 7β-HSDH was once again amplified from the genomic DNA by PCR; made in house; host or cells: E. coli BL21(DE3), pET-28a(+)
T1 sequence (A4ECA9 1-263): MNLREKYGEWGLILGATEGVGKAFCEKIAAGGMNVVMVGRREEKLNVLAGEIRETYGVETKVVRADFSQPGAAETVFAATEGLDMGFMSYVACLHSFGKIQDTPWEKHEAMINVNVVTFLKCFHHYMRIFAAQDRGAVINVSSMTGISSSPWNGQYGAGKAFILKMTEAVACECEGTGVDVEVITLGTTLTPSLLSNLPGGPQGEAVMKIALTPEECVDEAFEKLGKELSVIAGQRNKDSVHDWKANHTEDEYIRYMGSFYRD
The experiment in a line: Enzyme assay and kinetic analysis of 7β-HSDH (Lineweaver-Burk). Type of data set: biochemical. The following applies: pH 8, 25° C.

Data set [3] addresses 7β-HSDH (Collinsella aerofaciens, UniProt A4ECA9). The experiment in a line: Photometric identification of 7β-HSDH activity (production example 1). Type of data set: biochemical, Collinsella aerofaciens ATCC 25986. The following applies: 0.1 mM test substance, potassium phosphate buffer 50 mM pH 8, in the presence of NADP+ or NADPH. Here is the method: For identification of 7β-HSDH activity, the activity was investigated by a photometric method. In a 1 ml cuvette, enzyme and 0.1 mM of test substance (UDCA) were mixed in potassium phosphate buffer (50 mM, pH8).

The target of data set [4] is T2, 7β-HSDH from Collinsella aerofaciens, wild type (WT), SEQ ID NO:2 (Collinsella aerofaciens, UniProt A4ECA9).
T2 sequence (A4ECA9 1-263): T1 sequence (A4ECA9 1-263)
The experiment in a line: Kinetic measurements of 7β-HSDH variants (microtiter plate photometer, cell lysate). The following applies: 100 μM NADPH, varied DHCA, Michaelis-Menten model with substrate inhibition.

The target of data set [5] is T3, Collinsella aerofaciens 7β-HSDH mutant G39A (parent SEQ ID NO:2) (Collinsella aerofaciens, UniProt A4ECA9, G39A).
T3 sequence (A4ECA9 1-263 G39A): T1 sequence (A4ECA9 1-263) with G39A
The description is as above. Conditions: 100 μM NADPH, varied DHCA, Michaelis-Menten model with substrate inhibition.
Experimental: (§1) For each of the mutants and for the wild-type enzyme, kinetic measurements were carried out in the microtiter plate photometer, recording the conversion rates of the enzymes both with constant substrate concentrations with variation of cofactor concentrations and vice versa. To determine the specific enzyme activity, the enzyme concentrations in the cell lysate were determined by densitometry.
(§2) In these measurement series, the reaction rate was determined by linear regression over the first 4 measurements (0 s-18 s).
(§3) The data obtained were evaluated with IGOR Pro. […] For this reason, the classical Michaelis-Menten model was used for evaluating the measurement series at constant substrate concentration and variation of cosubstrate concentration, and the Michaelis-Menten model with substrate inhibition was used for the measurement series with constant cosubstrate concentration and variation of substrate concentration.
(§4) vmax, Km and Ki were determined by nonlinear regression.
(§5) [formula] • v specific enzyme activity, U mg^−1=μmol min^−1 mg^−1 • vmax maximum specific enzyme activity, U mg^−1=μmol min^−1 mg^−1 • cS substrate or cofactor concentration, mol L^−1 • Km semisaturation concentration, mol L^−1 • Ki inhibition constant, mol L^−1

The target in data set [6] is T4, Collinsella aerofaciens 7β-HSDH mutant G39S (parent SEQ ID NO:2) (Collinsella aerofaciens, UniProt A4ECA9, G39S).
T4 sequence (A4ECA9 1-263 G39S): T1 sequence (A4ECA9 1-263) with G39S
Described as above. Conditions: 100 μM NADPH, varied DHCA, Michaelis-Menten model with substrate inhibition.
Experimental: as §1, §2, §3, §4, §5

Data set [7] can be described thus: Preparative biotransformation of 7-keto-LCA by 7β-HSDH with ADH regeneration, HPLC. Conditions: isolated enzyme with ADH and 2-propanol for NADPH regeneration, 24° C., 24 hours. Type of data set: biochemical, Collinsella aerofaciens DSM 3979.
The format of data set [8] is biochemical, Collinsella aerofaciens. Conditions: 100 μM NADPH.
Data set [9] is described as follows: Photometric activity of 7β-HSDH variants with NADPH or NADH (production example 7). Type of data set: biochemical, Collinsella aerofaciens.

Residue numbers refer to the chain shown, from its start.

Consider `NC(=O)C1=CN([C@@H]2O[C@H](COP(=O)(O)OP(=O)(O)OC[C@H]3O[C@@H](n4cnc5c(N)ncnc54)[C@H](O)[C@@H]3O)[C@@H](O)[C@H]2O)C=CC1` [NADH], for which the kcat entry in data set [1] and in data set [2] was “Traces” each time.
With `NC(=O)c1ccc[n+]([C@@H]2O[C@H](COP(=O)([O-])OP(=O)(O)OC[C@H]3O[C@@H](n4cnc5c(N)ncnc54)[C@H](O)[C@@H]3O)[C@@H](O)[C@H]2O)c1` [NAD^+], the kcat entry in data set [1] and in data set [2] was “Traces” throughout.
Consider `C[C@H](CCC(=O)O)[C@H]1CC[C@H]2[C@@H]3C(=O)C[C@@H]4CC(=O)CC[C@]4(C)[C@H]3CC(=O)[C@]12C` [DHCA, Dehydrocholic acid], for which, in data set [3], the “activity of 7β-HSDH against the test substance” value worked out at 119 U/ml. Besides, the Vmax is listed as 28.33 U/mg protein in data set [1]; 14.6 ± 1.0 U/mg in data set [4]; 14.6 ± 1.0 U/mg in [4] (listed as DCS); 14.6±1.0 U/mg in data set [4] (listed as dehydrocholic acid); 21.0 ± 1.1 U/mg in data set [5] (listed as DCS); 21.0±1.1 U/mg in data set [5] (listed as dehydrocholic acid). Besides, the Vmax in [6] (listed as DCS) is given as 20.7 ± 1.0 U/mg; in data set [6] (listed as dehydrocholic acid), 20.1±1.0 U/mg. Besides, in data set [1], the kcat is on record as 875.35 1 μmol/(μmol × min).

B1: 7β-HSDH WT: 7β-hydroxysteroid dehydrogenase from Collinsella aerofaciens ATCC 25986 (DSM 3979), SEQ ID NO:2, NADPH-dependent (protein, listed as Collinsella aerofaciens)
chain: T1 sequence (A4ECA9 1-263)
Turning to B1, the “conversion of 7-keto-LCA to UDCA” value in data set [7] is 90%. Moreover, the “maximum attainable enzyme activities (specific enzyme activities at the maxima of the kinetic curves)” value in data set [8] was about 13 U/mg. Also, in data set [8] (10 mM dehydrocholic acid), the “enzyme activity at substrate concentration of 10 mM dehydrocholic acid” value is about 6.7 U/mg. In addition, in [9] (cofactor NADH), the “Specific activity NADH” value is given as 0 U/mg and the “Volumetric activity NADH” value is given as 0 U/ml. Besides, in [9] (cofactor NADPH), the “Specific activity NADPH” value came to 5.6 U/mg and the “Volumetric activity NADPH” value is given as 134 U/ml. The molecule further gave a residual activity (23° C., 1500 min) of 20%. In addition, under “after 400 min”, the “activity at 30° C. lower than at 23° C.” value is given as “about 30%”. Besides, the “activity loss during storage” value (−20° C., potassium phosphate buffer 50 mM pH 8, some months, repeated freezing and thawing) was “No significant activity loss”.

The term residual activity denotes what remains of the control signal, in per cent. Read a high residual activity as a small loss of activity.

(Values after US11981935B2, “7β-hydroxysteroid dehydrogenase mutants and process for the preparation of ursodeoxycholic acid” (PharmaZell GmbH, priority 2010, dated 2024).)
